Assay results as given in PMC3914206.

Tests used:
Type in all cases: binding
Conditions in all cases: Compound Concentration 10 µM
panel of 442 kinases [1] = target: T1, panel of 442 kinases (Homo sapiens, UniProt Q92772)
T1 construct: purchased KINOMEscan
T1 sequence (Q92772 1-493): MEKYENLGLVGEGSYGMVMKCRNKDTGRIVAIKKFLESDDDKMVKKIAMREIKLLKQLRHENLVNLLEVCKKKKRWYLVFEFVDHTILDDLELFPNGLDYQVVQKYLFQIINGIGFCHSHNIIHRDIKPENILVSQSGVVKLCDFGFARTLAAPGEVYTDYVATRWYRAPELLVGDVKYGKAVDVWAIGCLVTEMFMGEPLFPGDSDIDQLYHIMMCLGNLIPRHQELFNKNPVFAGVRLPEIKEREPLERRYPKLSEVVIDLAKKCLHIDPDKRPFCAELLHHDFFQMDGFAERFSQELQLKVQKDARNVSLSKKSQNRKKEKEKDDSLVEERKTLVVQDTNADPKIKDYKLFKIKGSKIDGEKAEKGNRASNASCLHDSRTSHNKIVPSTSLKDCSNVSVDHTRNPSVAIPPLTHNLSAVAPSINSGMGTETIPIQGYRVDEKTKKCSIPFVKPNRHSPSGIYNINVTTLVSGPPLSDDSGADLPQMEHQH
Text: (§1) We assessed the selectivity of members of this scaffold using the KINOMEscan methodology across a near comprehensive panel of 442 kinases [[18,27]].

panel of 442 kinases [2] = target: T2, panel of 442 kinases (Homo sapiens, UniProt P22455)
T2 construct: purchased KINOMEscan
Text: as §1

panel of 442 kinases [3] = target: T3, panel of 442 kinases (Homo sapiens, UniProt P51812)
T3 construct: purchased KINOMEscan
Text: as §1

T3 sequence (P51812 whole entry): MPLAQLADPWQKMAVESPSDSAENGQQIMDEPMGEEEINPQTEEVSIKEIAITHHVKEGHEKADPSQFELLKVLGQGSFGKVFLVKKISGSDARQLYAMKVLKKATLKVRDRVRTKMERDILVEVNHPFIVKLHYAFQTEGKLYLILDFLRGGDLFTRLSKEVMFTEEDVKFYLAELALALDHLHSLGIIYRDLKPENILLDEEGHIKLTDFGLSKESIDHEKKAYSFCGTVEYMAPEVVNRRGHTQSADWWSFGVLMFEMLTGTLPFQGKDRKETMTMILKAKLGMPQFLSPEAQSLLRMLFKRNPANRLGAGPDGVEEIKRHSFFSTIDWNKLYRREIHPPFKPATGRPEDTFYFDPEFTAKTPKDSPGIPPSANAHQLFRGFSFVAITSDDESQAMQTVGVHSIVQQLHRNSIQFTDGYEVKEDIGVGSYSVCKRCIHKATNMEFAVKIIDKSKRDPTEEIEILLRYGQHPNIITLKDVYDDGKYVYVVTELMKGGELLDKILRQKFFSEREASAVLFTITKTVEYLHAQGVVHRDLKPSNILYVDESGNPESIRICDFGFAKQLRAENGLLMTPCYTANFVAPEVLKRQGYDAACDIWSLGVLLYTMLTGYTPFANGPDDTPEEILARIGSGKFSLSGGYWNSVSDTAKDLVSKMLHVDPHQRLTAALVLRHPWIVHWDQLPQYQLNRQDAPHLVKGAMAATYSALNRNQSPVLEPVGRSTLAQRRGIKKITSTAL
T2 sequence (P22455 22-802): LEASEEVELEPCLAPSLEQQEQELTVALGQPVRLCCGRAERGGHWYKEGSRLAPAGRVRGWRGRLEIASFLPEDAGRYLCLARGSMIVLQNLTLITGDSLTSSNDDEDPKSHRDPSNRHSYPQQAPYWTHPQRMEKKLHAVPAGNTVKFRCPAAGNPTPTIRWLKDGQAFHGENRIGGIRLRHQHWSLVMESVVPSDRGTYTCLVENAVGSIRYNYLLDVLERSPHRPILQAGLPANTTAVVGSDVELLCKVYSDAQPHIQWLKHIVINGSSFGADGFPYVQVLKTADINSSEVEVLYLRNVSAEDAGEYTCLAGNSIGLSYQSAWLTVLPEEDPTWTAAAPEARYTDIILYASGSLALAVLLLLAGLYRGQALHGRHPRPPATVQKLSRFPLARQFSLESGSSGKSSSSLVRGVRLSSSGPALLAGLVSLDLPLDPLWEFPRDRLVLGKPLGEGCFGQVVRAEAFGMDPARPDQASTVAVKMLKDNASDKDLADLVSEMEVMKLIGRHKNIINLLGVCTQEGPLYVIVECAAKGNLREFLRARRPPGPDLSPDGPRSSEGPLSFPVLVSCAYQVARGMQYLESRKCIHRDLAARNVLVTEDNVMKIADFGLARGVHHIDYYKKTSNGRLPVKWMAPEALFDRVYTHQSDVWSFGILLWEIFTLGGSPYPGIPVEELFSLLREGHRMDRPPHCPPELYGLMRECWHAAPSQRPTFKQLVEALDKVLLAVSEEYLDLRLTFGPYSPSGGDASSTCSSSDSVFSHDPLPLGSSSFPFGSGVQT

Row | SMILES | KINOMEscan: CDKL2 (panel of 442 kinases [1]) | KINOMEscan: FGFR4 (panel of 442 kinases [2]) | KINOMEscan: RSK2(Kin.Dom.1-N-terminal) (panel of 442 kinases [3])
1 | CCOc1cc(C(=O)N2CCC(N3CCN(C)CC3)CC2)ccc1Nc1ncc2c(n1)N(C1CCCC1)c1ccccc1C(=O)N2C [Compound 26] | 99 | 100 | 100
2 | COc1cc(C(=O)N2CCC(N3CCN(C)CC3)CC2)ccc1Nc1ncc2c(n1)N(C1CCCC1)c1ccccc1C(=O)N2C [Compound 25, 11-cyclopentyl-2-((2-methoxy-4-(4-(4-methylpiperazin-1-yl)piperidine-1-carbonyl)phenyl)amino)-5-methyl-5H-benzo[e]pyrimido[5,4-b][1,4]diazepin-6(11H)-one] | 95 | 75 | 100
3 | COc1cc(C(=O)N2CCC(N3CCN(C)CC3)CC2)ccc1Nc1ncc2c(n1)N1CCc3cccc(c31)C(=O)N2C [Compound 24] |  | 23 | 
4 | COc1cc(C(=O)N2CCC(N3CCN(C)CC3)CC2)ccc1Nc1ncc2c(n1)N(C)c1ccccc1C(=O)N2C [15 (LRRK2-IN-1)] | 100 | 28 | 77
